Test results published in patent US11986530B2, “Drug composition for parenteral administration” (THERABIOPHARMA INC., priority 2016, dated 2024).

How the values were obtained:
[1] = tested on: β-glucuronidase; details: 10 μL of 2.45 μg/mL substrate, pH 5.0, 37° C., 1 hour, n=3
Experimental: In this regard, as a control, curcumin monoglucuronide was used for the examination.
In addition, as the curcumin diglucuronide, commercially available curcumin diglucuronide (manufactured by SynInnova Laboratories Inc.) was used.
Next, into the resultant mixture, 0.5 mL of chloroform was added, and the mixture was stirred for 1 minute with a vortex mixer, and then the stirred mixture was treated for 15 minutes by using an ultrasonic generator, and the treated mixture was fractionated into a chloroform layer and a water layer by centrifugation (10,000×g, for 5 minutes, at room temperature). Further, this fractionation process was repeated twice. After that, the chloroform layer was collected, and dried and solidified by distilling off the solvent with a vacuum centrifugal concentrator, and to the dried and solidified matter, 100 μL of 50% (v/v) methanol was added, and then the resultant mixture was centrifuged (10,000×g, for 5 minutes, at room temperature) to collect a supernatant liquid, and the collected supernatant liquid was taken as an enzyme-treated sample.
In 2 μL of the enzyme-treated sample prepared in the above (2), free curcumin was measured by the method described in “b.

[2] = tested on: KBM-5; details: KBM-5, in vitro; cited from earlier work
[3] = tested on: Jurkat cells; details: in vitro; cited from earlier work
[4] = tested on: U266; details: U266, in vitro; cited from earlier work
[5] = tested on: A549; details: A549, in vitro; cited from earlier work
[6] = tested on: human hepatocellular carcinoma cell lines (HepG2 cells); details: cited from earlier work
[7] = cited from earlier work
[8] = Intravenous administration test: concentration of curcumin conjugates and free curcumin in plasma; format: in vivo, SD rats; details: rat
Experimental: As the test animals, 9-week old SD rats (male, with a body weight of 330 to 360 g, CHARLES RIVER LABORATORIES JAPAN, INC.) were used.
The intravenous administration was performed as follows: a predetermined amount of the curcumin monoglucuronide prepared in Production Example 1 was dissolved into water for injection so as to be 30 mg/kg; and the obtained preparation was administered intravenously to each of the test animals (n=5) fasted for 12 hours or more before the administration via an indwelling catheter in the femoral artery of each of the test animals. In this regard, the catheter was indwelled in the femoral artery under isoflurane anesthesia on the day of administration and blood collection.
Blood was collected via a catheter from the femoral artery of each of test animals by using a heparin-treated syringe under the restraint condition in a Ballman cage without anesthesia. In this regard, around 0.6 mL of blood was collected after each lapse of 1, 3, 5, 10, 15, 30, 60, 120, 240 and 480 minutes from the start of intravenous administration, and the collected blood was centrifuged (at 3,000 rpm, for 10 minutes, at 4° C.) to obtain the plasma.
The concentration of each of the curcumin conjugate and free curcumin in plasma was determined by the following methods.
Further, this fractionation process was repeated twice.
In this regard, in the following test, a supernatant liquid prepared by using a β-glucuronidase solution was used as an enzyme-treated sample, and a supernatant liquid prepared by using distilled water in place of the β-glucuronidase solution was used as a non-enzyme-treated sample.
By analyzing 2 μL of the enzyme-treated or non-enzyme-treated sample prepared in the above-described “a. Pretreatment” using LC-MS/MS (manufactured by Shimadzu Corporation), the concentration of each of the curcumin conjugate and free curcumin in plasma was determined.
That is, by measuring the concentration of the curcumin contained in the enzyme-treated sample that had been obtained by the treatment with β-glucuronidase, the total concentration of curcumin in plasma was measured.
On the other hand, by measuring the concentration of the curcumin in the non-enzyme-treated sample that had not been treated with β-glucuronidase, the concentration of free curcumin in plasma was measured.
Further, by subtracting the concentration of free curcumin from the total concentration of curcumin, the concentration of the curcumin conjugates contained in plasma was calculated.
In this regard, the LC-MS/MS analysis conditions were set to be a LC column of Atlantis T3 (2.1×150 mm, 3 μm, manufactured by Waters), a column temperature of 40° C., a flow rate of 0.2 mL/min, and a mobile phase of A of a 0.1% formic acid aqueous solution and B of 0.1% formic acid/acetonitrile, and the gradient elution was performed under the following conditions (Table 1). In addition, the MS analysis conditions were set to be an ionization mode of […] (ESI), Positive, a measurement mode of Multiple Reaction Monitoring (MRM), curcumin of 369.1→177.2 (m/z), and mepronil of 270→119 (m/z), and the evaluation was performed.

[9] = tested on: colorectal cancer cells derived from adult human colon HCT116; assay: Anti-tumor effect by intravenous administration of curcumin conjugates (tumor size, HCT116 transplanted mice); format: in vivo, BALB/cAnNcr j-nu/nu (homo) mice; details: parenteral (i.v.) administration, 30 or 90 mg/kg, versus control group
Description: 1×10^7 or 4×10^6 colorectal cancer cells derived from adult human […] colon HCT116 (ATCC No. CCL-247) were transplanted subcutaneously into the flank of each of the test animals by using a 27 G injection needle.
In this regard, in the control group, mice to which water for injection excluding curcumin monoglucuronide had been administered intravenously were used.
For the tumor size, after each lapse of 0, 4, 7, 11 and 14 days from the start of administration or after each lapse of 0, 4, 7, 11, 14, 18 and 21 days from the start of administration, the length, width and height of the tumor were measured by using a vernier caliper, and the tumor size was calculated by the following equation. Tumor size (mm^3)=length×width×height×0.5 (5) Concentration of Curcumin Conjugates and Free Curcumin in Tumor Tissue

[10] = Concentration of curcumin conjugates and free curcumin in tumor tissue; format: in vivo, BALB/cAnNcr j-nu/nu (homo) mice; details: mouse, day 21
Experimental: For the mice (n=8) inoculated with the 4×10^6 cancer cells (HCT116), the tumor after the lapse of 2 hours from the intravenous administration of curcumin monoglucuronide (90 mg/kg) after the lapse of 21 days from the start of inoculation was removed from each of the mice, the removed tumor was rinsed with a saline solution, and then immediately frozen in liquid nitrogen, and the frozen tumor was stored in an ultra-low temperature tank at −80° C.
The frozen and stored tumor was thawed while cooling in ice, an adequate amount of a saline solution was added to the thawed tumor, and the thus obtained tumor was homogenized with a glass homogenizer, the concentration of each of the curcumin conjugates and free curcumin in the pulverized tumor obtained as described above were measured to examine the concentration of each of the curcumin conjugates and free curcumin contained in the tumor tissue.

SMILES: COc1cc(/C=C/C(=O)CC(=O)/C=C/c2ccc(O[C@@H]3O[C@H](C(=O)O)[C@@H](O)[C@H](O)[C@H]3O)c(OC)c2)ccc1O[C@@H]1O[C@H](C(=O)O)[C@@H](O)[C@H](O)[C@H]1O [curcumin diglucuronide]
- concentration of the curcumin contained in the enzyme-treated sample [1]: 82.4 ± 0.8 ng/mL
- cell growth inhibitory effect [2]: there is no such an effect
- cell growth inhibitory effect [3]: there is no such an effect
- cell growth inhibitory effect [4]: there is no such an effect
- cell growth inhibitory effect [5]: there is no such an effect

SMILES: COc1cc(/C=C/C(=O)/C=C(O)/C=C/c2ccc(O)c(OC)c2)ccc1O [curcumin]
- cell growth inhibitory effect [2]: has an effect of suppressing the growth of these cells
- cell growth inhibitory effect [3]: has an effect of suppressing the growth of these cells
- cell growth inhibitory effect [4]: has an effect of suppressing the growth of these cells
- cell growth inhibitory effect [5]: has an effect of suppressing the growth of these cells
- cell growth inhibitory effect [6]: found the cell growth inhibitory effect
- solubility in water [7]: hardly soluble in water

SMILES: COc1cc(/C=C/C(=O)CC(=O)/C=C/c2ccc(O[C@@H]3O[C@H](C(=O)O)[C@@H](O)[C@H](O)[C@H]3O)c(OC)c2)ccc1O [curcumin monoglucuronide]
- Cmax (ng/mL) of curcumin conjugates in plasma ([8]; 30 mg/kg i.v.): 160492 ± 19156 ng/mL
- AUC 0.02-8 h (ng·h/mL) of free curcumin in plasma ([8]; 30 mg/kg i.v. of conjugate): 2780 ± 962 ng·h/mL
- Cmax (ng/mL) of free curcumin in plasma ([8]; 30 mg/kg i.v. of conjugate): 10143 ± 3832 ng/mL
- concentration of free curcumin in plasma ([8]; 30 mg/kg i.v. of conjugate, 1 minute after administration): 10143 ± 3832 ng/mL
- concentration of free curcumin in plasma ([8]; 30 mg/kg i.v. of conjugate, 3 minutes): 7562 ± 2903 ng/mL
- concentration of free curcumin in plasma ([8]; 30 mg/kg i.v. of conjugate, 5 minutes): 5707 ± 2539 ng/mL
- concentration of free curcumin in plasma ([8]; 30 mg/kg i.v. of conjugate, 10 minutes): 3596 ± 1233 ng/mL
- concentration of free curcumin in plasma ([8]; 30 mg/kg i.v. of conjugate, 15 minutes): 2764 ± 796 ng/mL
- concentration of free curcumin in plasma ([8]; 30 mg/kg i.v. of conjugate, 30 minutes): 1605 ± 592 ng/mL
- concentration of free curcumin in plasma ([8]; 30 mg/kg i.v. of conjugate, 1 hour): 568 ± 197 ng/mL
- concentration of free curcumin in plasma ([8]; 30 mg/kg i.v. of conjugate, 2 hours): 117 ± 39 ng/mL
- concentration of free curcumin in plasma ([8]; 30 mg/kg i.v. of conjugate, 4 hours): 16 ± 5 ng/mL
- concentration of free curcumin in plasma ([8]; 30 mg/kg i.v. of conjugate, 8 hours): 6 ± 14 ng/mL
- concentration of curcumin conjugates in plasma ([8]; 30 mg/kg i.v., 1 minute after administration): 160492 ± 19156 ng/mL
- concentration of curcumin conjugates in plasma ([8]; 30 mg/kg i.v., 3 minutes): 77803 ± 6442 ng/mL
- concentration of curcumin conjugates in plasma ([8]; 30 mg/kg i.v., 5 minutes): 80489 ± 7161 ng/mL
- concentration of curcumin conjugates in plasma ([8]; 30 mg/kg i.v., 10 minutes): 46853 ± 10700 ng/mL
- concentration of curcumin conjugates in plasma ([8]; 30 mg/kg i.v., 15 minutes): 22918 ± 5271 ng/mL
- concentration of curcumin conjugates in plasma ([8]; 30 mg/kg i.v., 30 minutes): 10191 ± 3502 ng/mL
- concentration of curcumin conjugates in plasma ([8]; 30 mg/kg i.v., 1 hour): 4363 ± 1354 ng/mL
- concentration of curcumin conjugates in plasma ([8]; 30 mg/kg i.v., 2 hours): 1493 ± 371 ng/mL
- concentration of curcumin conjugates in plasma ([8]; 30 mg/kg i.v., 4 hours): 403 ± 120 ng/mL
- concentration of curcumin conjugates in plasma ([8]; 30 mg/kg i.v., 8 hours): 78 ± 39 ng/mL
- effect on tumor growth (in words) [9]: significantly suppressing the tumor growth
- concentration of the free curcumin in the tumor tissue ([10]; 2 hours after 90 mg/kg i.v. of conjugate): 1464.5 ± 840.9 ng/g
- concentration of the curcumin conjugates in the tumor tissue ([10]; 2 hours after 90 mg/kg i.v.): 605.4 ± 465.5 ng/g
